Assay results taken from publication PMC9797722 (Frontiers in Veterinary Science, 2022).
Like-named read-outs stand apart in the source and are kept apart here. Blank lines part the entries; values can stand above or below the molecule they belong to.

Key:
[1] = Plasma pharmacokinetics of esomeprazole and esomeprazole sulfone in goats after IV and SC administration (HPLC, non-compartmental analysis); conditions: for C0: C0, goats; for MRT inf: MRTinf; for k el: λz; for Vd/F: Vz/F
gastric pH = conditions: horses, cited from earlier work
[2] = humans, cited from earlier work
[3] = Canine, cited from earlier work
[4] = in vivo
[5] = test system: pH of the third compartment; set-up: method as in PMID 20384953; conditions: alpacas, administered IV or SC; cited from earlier work
[6] = set-up: method as in PMID 34631865; conditions: goats, intravenously or subcutaneously administered, all animals; cited from earlier work
[7] = both, pygmy and pygmy-cross, plasma, iv, 1 mg/kg
[8] = both, pygmy and pygmy-cross, plasma, iv, 1 mg/kg, goats, 1 mg/kg IV single dose, geomean, n = 5
[9] = both, pygmy and pygmy-cross, plasma, iv, 1 mg/kg, goats, 1 mg/kg IV single dose, median, n = 5
[10] = both, pygmy and pygmy-cross, plasma, sc, 2 mg/kg
[11] = both, pygmy and pygmy-cross, plasma, sc, 2 mg/kg, goats, 2 mg/kg SC (SQ) single dose, geomean, n = 5
[12] = both, pygmy and pygmy-cross, plasma, sc, 2 mg/kg, goats, 2 mg/kg SC (SQ) single dose, median, n = 5
[13] = goats, 1 mg/kg IV single dose, plasma, geomean, n = 5
[14] = goats, 1 mg/kg IV single dose, plasma, median, n = 5
[15] = goats, 2 mg/kg SC (SQ) single dose, plasma, geomean, n = 5
[16] = goats, 2 mg/kg SC (SQ) single dose, plasma, median, n = 5

F (bioavailability) ([1]; Goat, 2 mg/kg SC vs 1 mg/kg IV, AUCSC/AUCIV x DoseIV/DoseSC): 116%
AUC(0-inf) [1, 7]: 440 ng·h/mL
AUC(0-t) [1, 7]: 440 ng·h/mL
C0 ([1]; both, pygmy and pygmy-cross, plasma, iv, 1 mg/kg, 1 mg/kg IV single dose, geomean, n = 5): 2320 ng/mL
C0 ([1]; both, pygmy and pygmy-cross, plasma, iv, 1 mg/kg, 1 mg/kg IV single dose, median, n = 5): 2880 ng/mL
Cmax ([1]; both, pygmy and pygmy-cross, plasma, iv, 1 mg/kg, C0/Cmax, Goat, 1 mg/kg IV (Table 3 comparison)): 2320 ng/mL
clearance ([1]; both, pygmy and pygmy-cross, plasma, iv, 1 mg/kg, Cl (plasma clearance), goats, 1 mg/kg IV single dose, geomean, n = 5): 24.9 mL/min/kg
clearance ([1]; both, pygmy and pygmy-cross, plasma, iv, 1 mg/kg, Cl (plasma clearance), goats, 1 mg/kg IV single dose, median, n = 5): 21.9 mL/min/kg
clearance ([1]; both, pygmy and pygmy-cross, plasma, iv, 1 mg/kg, Cl, Goat, 1 mg/kg IV (Table 3 comparison)): 25 mL/min/kg
MRT inf [1, 8]: 9.19 min
MRT inf [1, 9]: 8.41 min
Vd ([1]; both, pygmy and pygmy-cross, plasma, iv, 1 mg/kg, Vss, Goat, 1 mg/kg IV (Table 3 comparison)): 0.23 L/kg
Vd ([1]; both, pygmy and pygmy-cross, plasma, iv, 1 mg/kg, Vz (volume of distribution), goats, 1 mg/kg IV single dose, geomean, n = 5): 0.23 L/kg
Vd ([1]; both, pygmy and pygmy-cross, plasma, iv, 1 mg/kg, Vz (volume of distribution), goats, 1 mg/kg IV single dose, median, n = 5): 0.19 L/kg
k el [1, 8]: 0.00183 s⁻¹
k el [1, 9]: 0.00183 s⁻¹
AUC(0-inf) [1, 10]: 1030 ng·h/mL
AUC(0-t) [1, 10]: 1020 ng·h/mL
Cmax ([1]; both, pygmy and pygmy-cross, plasma, sc, 2 mg/kg, C0/Cmax, Goat, 2 mg/kg SQ (Table 3 comparison)): 1040 ng/mL
Cmax ([1]; both, pygmy and pygmy-cross, plasma, sc, 2 mg/kg, Cmax, goats, 2 mg/kg SC (SQ) single dose, geomean, n = 5): 1040 ng/mL
Cmax ([1]; both, pygmy and pygmy-cross, plasma, sc, 2 mg/kg, Cmax, goats, 2 mg/kg SC (SQ) single dose, median, n = 5): 1060 ng/mL
bioavailability ([1]; both, pygmy and pygmy-cross, plasma, sc, 2 mg/kg, F (bioavailability), Goat, 2 mg/kg SC vs 1 mg/kg IV, AUCSC/AUCIV x DoseIV/DoseSC): > 100%
MRT inf [1, 11]: 51.7 min
MRT inf [1, 12]: 52.1 min
half-life ([1]; both, pygmy and pygmy-cross, plasma, sc, 2 mg/kg, T1/2 (λz) elimination half-life, goats, 2 mg/kg SC (SQ) single dose, geomean, n = 5): 29 min
half-life ([1]; both, pygmy and pygmy-cross, plasma, sc, 2 mg/kg, T1/2 (λz) elimination half-life, goats, 2 mg/kg SC (SQ) single dose, median, n = 5): 26.8 min
half-life ([1]; both, pygmy and pygmy-cross, plasma, sc, 2 mg/kg, T1/2 (λz), Goat, 2 mg/kg SQ): 29.4 min
Tmax ([1]; both, pygmy and pygmy-cross, plasma, sc, 2 mg/kg, Tmax, goats, 2 mg/kg SC (SQ) single dose, geomean, n = 5): 22 min
Tmax ([1]; both, pygmy and pygmy-cross, plasma, sc, 2 mg/kg, Tmax, goats, 2 mg/kg SC (SQ) single dose, median, n = 5): 20 min
Vd/F [1, 11]: 0.9 L/kg
Vd/F [1, 12]: 0.78 L/kg
k el [1, 11]: 0.0004 s⁻¹
k el [1, 12]: 0.000433 s⁻¹
AUCinf [1, 13]: 442 ng·h/mL
AUClast [1, 13]: 439 ng·h/mL
AUMCinf [1, 13]: 244 min²·µg/mL
AUCinf [1, 14]: 397 ng·h/mL
AUClast [1, 14]: 394 ng·h/mL
AUMCinf [1, 14]: 222 min²·µg/mL
AUCinf [1, 15]: 1030 ng·h/mL
AUClast [1, 15]: 1020 ng·h/mL
AUMCinf [1, 15]: 3200 min²·µg/mL
Tmax ([1]; goats, 2 mg/kg SC (SQ) single dose, plasma, geomean, n = 5, 2 mg/kg): 21.69 min
AUCinf [1, 16]: 979 ng·h/mL
AUClast [1, 16]: 959 ng·h/mL
AUMCinf [1, 16]: 3780 min²·µg/mL
plasma concentrations detected over time ([1]; goats, IV (1 mg/kg) and SC (2 mg/kg), any animal): not detected after 4 h
SMILES: COc1ccc2nc([S@@+]([O-])Cc3ncc(C)c(OC)c3C)[nH]c2c1 [Esomeprazole, esomeprazole]
clearance ([1]; both, pygmy and pygmy-cross, plasma, iv, 1 mg/kg, clearance, goats, 1 mg/kg IV, not normalised to body weight): 1050 mL/min
gastric pH raised to (gastric pH; administered intravenously): ≥ 4
tolerability of maintenance therapy ([2]; daily for up to 6 months): generally well-tolerated
AUCinf ([3]; 1 mg/kg IV): 3820 ng·h/mL
AUClast ([3]; 1 mg/kg IV): 3820 ng·h/mL
Cl ([3]; 1 mg/kg IV): 5 mL/min/kg
T1/2 (λz) ([3]; 1 mg/kg IV): 43.8 min
Vss ([3]; 1 mg/kg IV): 0.27 L/kg
AUCinf ([3]; 1 mg/kg SQ): 4070 ng·h/mL
AUClast ([3]; 1 mg/kg SQ): 4070 ng·h/mL
C0/Cmax ([3]; 1 mg/kg SQ): 2620 ng/mL
F (bioavailability) ([3]; 1 mg/kg SQ): 106%
T1/2 (λz) ([3]; 1 mg/kg SQ): 54 min

SMILES: COc1ccc2[n-]c([S+]([O-])Cc3ncc(C)c(OC)c3C)nc2c1.COc1ccc2[n-]c([S+]([O-])Cc3ncc(C)c(OC)c3C)nc2c1.[Mg+2] (stereo not shown) [esomeprazole magnesium]
gastric pH maintained (gastric pH; orally 60 or 80 mg, for up to 6 h post administration): ≥ 5
adverse reactions (gastric pH; orally 60 or 80 mg): No adverse reactions were found

time detectable in plasma [4]: < 4 h
detection of sulfone metabolite in plasma ([4]; sc): no detectable sulfone metabolite
SMILES: COc1ccc2[nH]c(S(=O)(=O)Cc3ncc(C)c(OC)c3C)nc2c1 [Esomeprazole Sulfone, esomeprazole sulfone]
activity of the metabolite within the body [2]: not active

SMILES: COc1ccnc(C[S+]([O-])c2nc3ccc(OC(F)F)cc3[nH]2)c1OC (stereo not shown) [pantoprazole]
effect on pH of the third compartment [5]: significantly increased the pH of the third compartment
plasma concentration detected over time [6]: undetectable after 4 h
